Assay results: patent US4418079A, “Conjugated ketone compounds in preventing platelet thrombosis” (Sumitomo Chemical Company, Limited, priority 1978, dated 1983)
Values after ≈ are worked out from the molar mass of the structure shown. Counter-ions that a name gives are not always drawn. Like-named read-outs stand apart in the source and are kept apart here.

Tests used:
[1] = test system: ADP induced platelet aggregation; assay: In vitro inhibition of ADP induced platelet aggregation (aggregometer method of Born, modified by Mustard); format: cell-based, rabbit; conditions: Oryctolagus cuniculus
Method: (§1) The aggregometer method of Born [G. V. R. Born: J.Physiol., London, 162, 67 (1962)] as modified by Mustard et al. [J. F. Mustard et al.: J.Lab.Clin.Med., 64, 548 (1964)] was used to assess the in vitro activity of various compounds as to inhibition of collagen and adenosine diphosphate (ADP) induced platelet aggregation. Platelet rich plasma (PRP) was separated by centrifugation from citrated (3.8%) rabbit blood. ADP in final concentration of […] prepared according to the method described by Evans et al. [G. Evans et al.: J.Exp. Med., 128, 877 (1968)] was used to induce aggregation. The test compounds were dissolved in buffer solution so that 0.05 ml added to PRP would yield the desired test concentration. Vehicle control trials were done and compared with aggregation induced in platelet rich plasma containing various concentrations of the test compounds. Dose response curves were obtained, and 50% inhibitive concentration (IC50) values were calculated.

[2] = test system: collagen induced platelet aggregation; assay: In vitro inhibition of collagen induced platelet aggregation (aggregometer method of Born, modified by Mustard); format: cell-based, rabbit; conditions: Oryctolagus cuniculus
Method: as §1

[3] = test system: Neuroleptic activity (Anti apomorphine test); assay: Neuroleptic activity (anti apomorphine test); format: in vivo, rat; conditions: for neuroleptic activity, in words: rat, in vivo
From the text: No. ED50 (rat, s.c., mg/kg)
*P. A. J. Janssen et al.: ArzneimittelForschung, 15, 104-117 (1965)

[4] = test system: ADP induced platelet aggregation; assay: Ex vivo inhibition of ADP induced aggregation in PRP after oral administration to rats; conditions: Rattus norvegicus, PRP 1 hour after oral administration, read-out: ED50, 50% inhibition of the aggregation (ADP)
Method: (§2) The conjugated ketone compounds [I] were also tested ex vivo in rats where ADP or collagen was used to induce aggregation in PRP samples obtained 1 hour after oral administration. Blood was drawn after dosing and the procedure of platelet aggregation was the same as the in vitro experiments. Inhibitory values were calculated compared with the activity of PRP samples of vehicle treated rats. The dose required to produce 50% inhibition of the aggregation (ED50) was determined by dose response data obtained in this manner.

[5] = test system: collagen induced platelet aggregation; assay: Ex vivo inhibition of collagen induced aggregation in PRP after oral administration to rats; conditions: Rattus norvegicus, PRP 1 hour after oral administration, read-out: ED50, 50% inhibition of the aggregation (collagen)
Method: as §2

[6] = test system: blood platelet aggregation; assay: Blood platelet anti-aggregation activity (general statements); format: cell-based, rabbit; conditions: compared with compound [A] / compounds of U.S. Pat. No. 4,012,515
Method: as §1

[7] = in vitro, ADP, Table 2, read-out: Blood platelet aggregation inhibitory activity IC50, ADP
[8] = in vitro, Collagen, Table 2, read-out: Blood platelet aggregation inhibitory activity IC50, Collagen
[9] = in vitro, rabbit PRP, ADP induced, Table 1, read-out: Inhibitory activity IC50, ADP
[10] = in vitro, rabbit PRP, collagen induced, Table 1, read-out: Inhibitory activity IC50, Collagen

SMILES | IC50 [1, 9] [µg/mL] | IC50 [2, 10] [µg/mL] | also measured
O=C(/C=C/CN1CCC(O)(c2cccc(C(F)(F)F)c2)CC1)c1ccc(F)cc1 [A, reference compound] |  |  | IC50 [1, 7]: 9 µg/mL (≈ 22.1 µM); IC50 [2, 8]: 3.5 µg/mL (≈ 8.59 µM); ED50 ([3]; Rattus norvegicus, sc, read-out: Neuroleptic activity (Anti apomorphine test) ED50): 0.1 mg/kg
CN(C)C/C=C/C(=O)c1ccccc1 [Compound 1] | 3.3 (≈ 17.4 µM) | 2 (≈ 10.6 µM) | 
CCN(C)C/C=C/C(=O)c1ccccc1 [Compound 2] | 3 (≈ 14.8 µM) | 2.2 (≈ 10.8 µM) | 
CCN(CC)C/C=C/C(=O)c1ccccc1 [Compound 3, N-(4-Phenyl-4-oxo-2-trans-butenyl)-N,N-diethylamine hydrobromide] | 3.3 | 1.5 | IC50 [1, 7]: 3.3 µg/mL; IC50 [2, 8]: 1.5 µg/mL; ED50 [4]: 0.3 mg/kg; ED50 [5]: 3 mg/kg; neuroleptic activity, in words [3]: does not produce any slight degree of neuroleptic activity; neuroleptic activity, in words ([3]; sc): No effect at 10 mg/kg; blood platelet anti-aggregation activity, in words [6]: more potent than the compound [A] in blood platelet anti-aggregation activity
CCCN(C/C=C/C(=O)c1ccccc1)CCC [Compound 4] | 2.5 (≈ 10.2 µM) | 1.3 (≈ 5.3 µM) | 
CC(C)N(C/C=C/C(=O)c1ccccc1)C(C)C [Compound 5] | 3.7 (≈ 15.1 µM) | 1.6 (≈ 6.52 µM) | 
CCCCN(C/C=C/C(=O)c1ccccc1)CCCC [Compound 6] | 5.2 (≈ 19 µM) | 2.7 (≈ 9.87 µM) | 
CN(C/C=C/C(=O)c1ccccc1)C12CC3CC(CC(C3)C1)C2 [Compound 7] | 3.6 (≈ 11.6 µM) | 2.4 (≈ 7.76 µM) | 
CN(C/C=C/C(=O)c1ccccc1)C1CCCCC1 [Compound 8] | 1.8 (≈ 6.99 µM) | 3.7 (≈ 14.4 µM) | 
O=C(/C=C/CN1CCCC1)c1ccccc1 [Compound 9] | 2.5 (≈ 11.6 µM) | 1.2 (≈ 5.57 µM) | 
O=C(/C=C/CN1CCCCC1)c1ccccc1 [Compound 10] | 5.2 (≈ 22.7 µM) | 3.2 (≈ 14 µM) | ED50 [5]: 2 mg/kg
CCN(CC)CC/C=C/C(=O)c1ccccc1 [Compound 11] | 6 (≈ 25.9 µM) | 1.8 (≈ 7.78 µM) | 
CCN(CC)C/C=C/C(=O)c1ccccc1Cl [Compound 12] | 3.1 (≈ 12.3 µM) | 2.8 (≈ 11.1 µM) | 
O=C(/C=C/CN1CCCCC1)c1cccc(Cl)c1 [Compound 13] | 3.1 (≈ 11.8 µM) | 3.1 (≈ 11.8 µM) | 
CCN(CC)C/C=C/C(=O)c1ccc(Cl)cc1 [Compound 14] | 1.6 (≈ 6.36 µM) | 2.5 (≈ 9.93 µM) | 
O=C(/C=C/CN1CCCCC1)c1ccc(Cl)cc1 [Compound 15] | 4.8 (≈ 18.2 µM) | 1.6 (≈ 6.07 µM) | 
O=C(/C=C/CN1CCCCC1)c1ccc(Br)cc1 [Compound 16] | 3.2 (≈ 10.4 µM) | 3 (≈ 9.73 µM) | 
CCN(CC)C/C=C/C(=O)c1ccc(C)cc1 [Compound 17] | 2.3 (≈ 9.94 µM) | 1.5 (≈ 6.48 µM) | 
Cc1ccc(C(=O)/C=C/CN2CCCCC2)cc1 [Compound 18] | 2 (≈ 8.22 µM) | 3.4 (≈ 14 µM) | 

SMILES | IC50 [1, 9] [µg/mL] | IC50 [2, 10] [µg/mL] | also measured
CCN(CC)C/C=C/C(=O)c1ccc(OC)cc1 [Compound 19] | 3.7 (≈ 15 µM) | 3.5 (≈ 14.2 µM) | 
CCN(CC)C/C=C/C(=O)c1ccc2c(c1)OCO2 [Compound 20] | 1.3 (≈ 4.97 µM) | 3.7 (≈ 14.2 µM) | 
CSc1ccccc1C(=O)/C=C/CN1CCCCC1 [Compound 21] | 3.2 (≈ 11.6 µM) | 3.7 (≈ 13.4 µM) | 
CSc1ccc(C(=O)/C=C/CN(C)C)cc1 [Compound 22] | 1.2 (≈ 5.1 µM) | 2.2 (≈ 9.35 µM) | 
CCN(CC)C/C=C/C(=O)c1ccc(SC)cc1 [Compound 23] | 1.4 (≈ 5.31 µM) | 2.4 (≈ 9.11 µM) | 
CCCN(C/C=C/C(=O)c1ccc(SC)cc1)CCC [Compound 24] | 3.6 (≈ 12.4 µM) | 2.6 (≈ 8.92 µM) | 
CSc1ccc(C(=O)/C=C/CN2CCCC2)cc1 [Compound 25] | 3 (≈ 11.5 µM) | 1.1 (≈ 4.21 µM) | 
CSc1ccc(C(=O)/C=C/CN2CCCCC2)cc1 [Compound 26] | 1.2 (≈ 4.36 µM) | 1.5 (≈ 5.45 µM) | 
CCN(CC)C/C=C/C(=O)c1ccccc1C(F)(F)F [Compound 27] | 3 (≈ 10.5 µM) | 4.2 (≈ 14.7 µM) | 
O=C(/C=C/CN1CCCCC1)c1ccc(C(F)(F)F)cc1 [Compound 28] | 2.7 (≈ 9.08 µM) | 3.1 (≈ 10.4 µM) | 
CCN(CC)C/C=C/C(=O)c1ccc2ccccc2c1 [Compound 29] | 1.25 (≈ 4.68 µM) | 1.7 (≈ 6.36 µM) | 
O=C(/C=C/CN1CCCCC1)c1ccc2ccccc2c1 [Compound 30] | 2.2 (≈ 7.87 µM) | 2.2 (≈ 7.87 µM) | 
CCN(CC)C/C=C/C(=O)c1ccco1 [Compound 31] | 3 (≈ 14.5 µM) | 1.8 (≈ 8.68 µM) | 
CCCCCCN(C)C/C=C/C(=O)c1ccco1 [Compound 32] | 4.5 (≈ 18 µM) | 5.8 (≈ 23.3 µM) | 
O=C(/C=C/CN1CCCCC1)c1ccco1 [Compound 33] | 3.8 (≈ 17.3 µM) | 2.2 (≈ 10 µM) | 
CCN(CC)C/C=C/C(=O)c1cccs1 [Compound 34] | 3 (≈ 13.4 µM) | 2.3 (≈ 10.3 µM) | 
O=C(/C=C/CN1CCCCC1)c1cccs1 [Compound 35] | 2.8 (≈ 11.9 µM) | 1.8 (≈ 7.65 µM) | 
O=C(/C=C/CN1CC2CCC(CC2)C1)c1ccccc1 [Compound 36] | 2.7 (≈ 10 µM) | 1.2 (≈ 4.45 µM) | 
COc1ccc(Cc2nccc3cc(OC)c(OC)cc23)cc1OC [Papaverine, reference compound] |  |  | IC50 ([1]; read-out: Inhibitory activity IC50, ADP): 65 µg/mL (≈ 192 µM); IC50 ([2]; read-out: Inhibitory activity IC50, Collagen): 60 µg/mL (≈ 177 µM)
